Measurements reported in ChEMBL document CHEMBL1138872, “Free radical scavengers from the medicinal mushroom Inonotus xeranticus and their proposed biogenesis” (Bioorg Med Chem Lett, 2006).

Experiments:
Format in all cases: functional
[1] = ABTS radical scavenging activity
[2] = Superoxide anion radical scavenging activity by xanthine/xanthine oxidase method
[3] = DPPH radical scavenging activity

Compound | IC50 [1] [µM] | IC50 [2] [µM] | IC50 [3] [µM]
O=C(O)c1ccc(O)c(O)c1 [PROTOCATECHUIC ACID] | 15.7 | > 100 | 27
COC1Oc2cc(/C=C/c3ccc(O)c(O)c3)oc(=O)c2-c2cc(O)c(O)cc21 (stereo unspecified) [INOSCAVIN D] | 12.5 | > 100 | > 100
O=c1oc2cc(/C=C/c3ccc(O)c(O)c3)oc(=O)c2c2cc(O)c(O)cc12 [PHELLIGRIDIN D] | 13.7 | > 100 | > 100
VITAMIN E | 8.8 | > 100 | 11.5

Next, values leading:

IC50 [1] [µM] | IC50 [2] [µM] | IC50 [3] [µM] | Compound
5 | 25.3 | 29.4 | O=Cc1ccc(O)c(O)c1 [PROTOCATECHUALDEHYDE]
2.8 | 2.9 | 30 | O=C(O)/C=C/c1ccc(O)c(O)c1 [CAFFEIC ACID]
8.7 | 40.7 | > 100 | COc1cc(/C=C/c2cc3c(c(=O)o2)-c2cc(O)c(O)cc2C(OC)O3)ccc1O (stereo unspecified) [METHYLINOSCAVIN D]
